The source of these data is patent US20230143612A1 (Arbutus Biopharma Corporation, priority 2020, published 2023).

The structures appear in SMILES notation.

PD-L1 His protein / PD-1 Fc protein, sequence (Q9NZQ7 19-238 limits assumed): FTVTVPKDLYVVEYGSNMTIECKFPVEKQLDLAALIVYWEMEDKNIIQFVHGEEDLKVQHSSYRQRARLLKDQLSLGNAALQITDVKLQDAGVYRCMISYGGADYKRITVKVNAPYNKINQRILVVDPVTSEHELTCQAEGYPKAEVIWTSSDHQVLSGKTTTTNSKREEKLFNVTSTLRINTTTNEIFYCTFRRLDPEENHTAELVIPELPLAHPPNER

The assay addresses PD-L1 His protein / PD-1 Fc protein (Homo sapiens, UniProt Q9NZQ7). Description: HTRF Assay (PD-1/PD-L1 interaction). The format is binding. The conditions noted are these: PD-L1 His 6 nM, PD-1 Fc 6 nM. The gist of the method:
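Compounds tested from 20 μM down to 0.001 μM (3-fold) against 6 nM PD-L1 His and 6 nM PD-1 Fc, 15 min room temperature incubation. Detection after 1 h at room temperature with Tb cryptate anti-6HIS and XL665 anti-human IgG reagents (mixture at 0.35 nM and 6.7 nM), HTRF signal.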
In general, IC50 refers to the concentration at which inhibition is half-maximal. A low value points to greater potency in that assay. `COc1nc(-c2cccc(-c3cccc(-c4cc(C)c5nc(CNC[C@@H]6CCC(=O)N6)cc(=O)n5c4)c3Cl)c2Cl)ccc1CNC[C@@H]1CCC(=O)N1` [Example 288, 7-(2,2′-Dichloro-3′-(6-methoxy-5-(((((S)-5-oxopyrrolidin-2-yl)methyl)amino)methyl)pyridin-2-yl)-[1,1′-biphenyl]-3-yl)-9-methyl-2-(((((S)-5-oxopyrrolidin-2-yl)methyl)amino)methyl)-4H-pyrido[1,2-a]pyrimidin-4-one] came in with an IC50 of 56 nM.

`COc1nc(-c2cccc(-c3cccc(-c4ccc5c(n4)N(C)CCC5NC[C@@H]4CCC(=O)N4)c3Cl)c2Cl)cnc1CNC[C@@H]1CCC(=O)N1` (mixture of isomers) [Example 56, (5S)-5-(((7-(2,2′-Dichloro-3′-(6-methoxy-5-(((((S)-5-oxopyrrolidin-2-yl)methyl)amino)methyl)pyrazin-2-yl)-[1,1′-biphenyl]-3-yl)-1-methyl-1,2,3,4-tetrahydro-1,8-naphthyridin-4-yl)amino)methyl)pyrrolidin-2-one] returned an IC50 of 0.7 nM.

`COc1nc(-c2cccc(-c3cccc(-c4cc5c(=O)n(C)c(CNCCCF)nn5c4)c3Cl)c2Cl)cc(Cl)c1CNC[C@@H]1CCC(=O)N1` [Example 490, (S)-6-(2,2′-Dichloro-3′-(4-chloro-6-methoxy-5-((((5-oxopyrrolidin-2-yl)methyl)amino)methyl)pyridin-2-yl)-[1,1′-biphenyl]-3-yl)-2-(((3-fluoropropyl)amino)methyl)-3-methylpyrrolo[2,1-f][1,2,4]triazin-4(3H)-one] showed an IC50 of 0.1 nM.

Turning to `COc1nc(-c2cccc(-c3cccc(-c4ccn5c(=O)c(CNC[C@H](C)O)cnc5c4)c3Cl)c2Cl)ccc1CNC[C@@H](C)O` [Example 196, 8-(2,2′-Dichloro-3′-(5-((((R)-2-hydroxypropyl)amino)methyl)-6-methoxypyridin-2-yl)-[1,1′-biphenyl]-3-yl)-3-((((S)-2-hydroxypropyl)amino)methyl)-4H-pyrido[1,2-a]pyrimidin-4-one], the IC50 is 2.8 nM.

Compound `COc1nc(-c2cccc(-c3cccc(-c4ccn5c(=O)c(CNC[C@@H]6CCC(=O)N6)cnc5c4)c3Cl)c2Cl)ccc1CNC1(C(=O)O)CC1` [Example 115, (S)-1-(((6-(2,2′-Dichloro-3′-(4-oxo-3-((((5-oxopyrrolidin-2-yl)methyl)amino)methyl)-4H-pyrido[1,2-a]pyrimidin-8-yl)-[1,1′-biphenyl]-3-yl)-2-methoxypyridin-3-yl)methyl)amino)cyclopropane-1-carboxylic acid] yielded an IC50 of 2.5 nM.

Turning to `COc1nc(-c2cccc(-c3cccc(-c4ccn5c(=O)c(CNC[C@@H]6CCC(=O)N6)c(C)nc5c4)c3Cl)c2Cl)ccc1CNC[C@@H]1CCC(=O)N1` [Example 164, 8-(2,2′-Dichloro-3′-(6-methoxy-5-(((((S)-5-oxopyrrolidin-2-yl)methyl)amino)methyl)pyridin-2-yl)-[1,1′-biphenyl]-3-yl)-2-methyl-3-(((((S)-5-oxopyrrolidin-2-yl)methyl)amino)methyl)-4H-pyrido[1,2-a]pyrimidin-4-one], half-maximal inhibition (IC50) required 1.3 nM.

Consider `COc1nc(-c2cccc(-c3cccc(-c4ccc5c(n4)CCN(C[C@@H]4CCC(=O)N4)C5)c3Cl)c2Cl)ccc1CNC[C@@H]1CCC(=O)N1` [Example 426, (S)-5-((((6-(2,2′-Dichloro-3′-(6-(((S)-5-oxopyrrolidin-2-yl)-methyl)-5,6,7,8-tetrahydro-1,6-naphthyridin-2-yl)-[1,1′-biphenyl]-3-yl)-2-methoxypyridin-3-yl)-methyl)-amino)-methyl)pyrrolidin-2-one], for which the IC50 turned out to be 0.1 nM.

In turn, `COc1cc(-c2cccc(-c3cccc(-c4ccc(CNC[C@@H]5CCC(=O)N5)c(OC)n4)c3Cl)c2Cl)cc2c1CN(CCO)CC2` [Example 455, (S)-5-((((6-(2,2′-Dichloro-3′-(2-(2-hydroxyethyl)-8-methoxy-1,2,3,4-tetrahydroisoquinolin-6-yl)-[1,1′-biphenyl]-3-yl)-2-methoxypyridin-3-yl)methyl)amino)methyl)pyrrolidin-2-one] showed an IC50 of 12 nM.
